Common to all, as to assay type: cell-based
The subject of assay [1] is Aspergillus fumigatus isolates. The assay can be described thus: Broth microdilution assay of planktonic fungal growth (modified EUCAST). The settings on record: Aspergillus fumigatus. The procedure:
This assay was conducted using a modified method published by EUCAST (Rodriguez-Tudela et al., 2008). Spores of Aspergillus fumigatus (NCPF2010, NCPF7010 (Methionine 220 mutation), NCPF7099 (Glycine G54 mutation) from Public Health England, Wiltshire; TR34/L98H mutants from St Louis Hospital, Paris, France) were cultured in Sabouraud dextrose agar for 3 days. A stock spore suspension was prepared from a Sabouraud dextrose agar culture by washing with PBS-tween (10 mL; PBS containing 0.05% Tween-20, 100 U/mL Penicillin and 100 U/mL Streptomycin). The spore count was assessed using a Neubauer haemocytometer and then adjusted to 10^6 spores/mL with PBS. A working suspension of spores (2×10^5 spores/mL) was prepared in filter sterilised, BSA MOPS RPMI-1640 (50 mL; RPMI-1640 containing 2 mM L-glutamine, 0.5% BSA, 2% glucose, 0.165 M MOPS, buffered to pH 7 with NaOH). For the assay, BSA MOPS RPMI-1640 (50 μL/well) was added throughout the 384-well plate (Catalogue number 353962, BD Falcon, Oxford, UK) first. Test compounds (0.5 μL DMSO solution) were then added in quadruplicate using an Integra VIAFLO 96 (Integra, Zizers, Switzerland), and mixed well using a plate mixer. Subsequently 50 μL of the working spore suspension prepared above was added to all wells except non-spore control wells. For non-spore control wells, BSA MOPS-RPMI solution (50 μL/well) was added instead. The plate was covered with a plastic lid, and incubated (35° C. with ambient air) for 48 hr. The OD of each well at 530 nm was determined using a multi-scanner (Clariostar: BMG, Buckinghamshire, UK). The percentage inhibition for each well was calculated and the MIC50, MIC75 and MIC90 values were calculated from the concentration-response curve generated for each test compound.
Background: In broth dilution the organism is exposed to a series of concentrations in liquid medium.

For assay [2], the system named is Aspergillus fumigatus (NCPF2010). The assay can be described thus: Aspergillus fumigatus invasion in human alveoli bilayers (transwells), GM in lower chamber. The settings on record: for DFB50 (days taken to reach a fungal burden of 50% of control) / GM Levels in the Lower Chamber, % inhibition vs. control / GM Levels in the Lower Chamber, OD value: Compound (I) 0.1 μg/mL upper chamber, Posaconazole 0.01 μg/mL lower chamber. Here is the method: In vitro models of human alveoli, consisting of a bilayer of human alveolar epithelial cells and endothelial cells, were prepared as previously described (Hope et al., 2007). […] Primary human pulmonary artery endothelial cells (HPAEC) were harvested and diluted to 10^6 cells/mL in EGM-2 media (Lonza, Basel, Switzerland). Transwells were inverted and the cell suspension (100 μL/well) was applied to the base of each transwell. The inverted transwells were incubated at RT within a flow hood for 2 hr after which they were turned upright. EGM-2 media was added to the lower (700 μL/well) and upper (100 μL/well) compartments and the transwells were incubated for 48 hr (37° C., 5% CO2). The EGM-2 media in the lower compartment was then replaced with fresh EGM-2 media. A549 cells were harvested and diluted to 5×10^5 cells/mL in 10% EBM, then added to the upper compartment (100 μL/well) of all transwells and the plates incubated for 72 hr (37° C., 5% CO2). Conidia of Aspergillus fumigatus (the itraconazole sensitive strain NCPF2010 and the itraconazole resistant strain TR34-L98H) were cultured separately in Sabouraud dextrose agar for 3 days. A stock conidia suspension of either strain was prepared from a Sabouraud dextrose agar culture by washing with PBS-tween (10 mL; PBS containing 0.05% Tween-20, 100 U/mL Penicillin and 100 U/mL Streptomycin). The conidia count was assessed using a Neubauer haemocytometer and adjusted to 10^6 conidia/mL with PBS. A working stock of conidia was prepared in EBM (conc of 10^5 conidia/mL) immediately prior to use.
The media in the upper compartment was aspirated and that containing the appropriate test and reference compounds, or vehicle, were added (100 μL/well). Transwells were then transferred into the 24-well plate containing the test and reference compounds or DMSO vehicle. After incubation for 1 hr (35° C., 5% CO2) the conidia suspension (10 μL/well) was added to the upper compartment of each transwell. Plates were then incubated for 24 hr (35° C., 5% CO2). Supernatants from each compartment (5 μL/compartment) were collected and stored (−20° C.). Media was replaced daily after collection of the supernatants and all wells were treated with test and reference compounds or with DMSO, as described above, for 3 days. Samples continued to be collected until fungal growth was visible by eye in all transwells. The levels of GM in the supernatant in lower compartment were then measured by ELISA (BioRad, CA, USA) as an index of Aspergillus fumigatus invasion.

A further assay relates to Cryptococcus neoformans. The assay is described as follows: Fungus panel screening, CLSI broth microdilution. The settings on record: strain ATCC24067, visual inspection (CLSI); for MIC: read-out: MIC100. The procedure:
(§1) Fungus panel screening was conducted by Eurofins Panlabs Inc. The MIC and MIC50 values of the test articles were determined following the guidelines of the Clinical and Laboratory Standards Institute, broth microdilution methods for yeast (CLSI M27-A2), (CLSI, 2002) and for filamentous fungi (CLSI M38-A), (CLSI, 2008).

In another assay the test system is Aspergillus flavus. The assay is described as follows: Fungus panel screening, CLSI broth microdilution. The settings on record: strain ATCC204304, visual inspection (CLSI); for MIC: read-out: MIC100. Here is the method:
as §1

Where [3] appears, read: isolate NCPF7099, broth microdilution, read-out: MIC75.

We go through 3 compounds from patent US20210238169A1, “PROCESS FOR PREPARING A COMPOUND OF FORMULA (XIII)” (PULMOCIDE LIMITED, priority 2014, published 2021).

In brackets after ≈: the same amount, converted by molar mass. Like-named read-outs stand apart in the source and are kept apart here. Some results are limits rather than exact numbers.

As usually defined, the MIC50 is the lowest concentration that inhibits either 50% of growth or 50% of the strains tested, depending on the study. In the case of `Cc1cc(N2CCN(c3ccc(C(=O)Nc4ccc(F)cc4)cc3)CC2)ccc1OC[C@@H]1CO[C@@](Cn2cncn2)(c2ccc(F)cc2F)C1` [Compound (I), 4-(4-(4-(((3R,5R)-5-((1H-1,2,4-triazol-1-yl)methyl)-5-(2,4-difluorophenyl)tetrahydrofuran-3-yl)methoxy)-3-methylphenyl)piperazin-1-yl)-N-(4-fluorophenyl)benzamide], the MIC in assay [1] (NCPF2010, read-out: MIC75) was 0.0136 µM (≈ 0.00929 µg/mL); in assay [1] (read-out: MIC75) it was 0.0567 µM (≈ 0.0387 µg/mL); in assay [1] (setting [3]), 0.0165 µM (≈ 0.0113 µg/mL); in the assay with Cryptococcus neoformans, 1 µg/mL (≈ 1.46 µM); in the assay with Aspergillus flavus it was greater than 8 µg/mL. Also, the “DFB50 (days taken to reach a fungal burden of 50% of control)” value in assay [2] came out at 1.13 days. Moreover, the “effect of combination therapy on invasion in alveoli bilayers” value in assay [2] (Compound (I) combined with intraconazole, voriconazole or caspofungin (results not shown)) is recorded as “synergistic or additive effect”. Also, the “GM Levels in the Lower Chamber, % inhibition vs. control” value in assay [2] (Treatment Day 1) was 86%; in assay [2] (Treatment Day 2) it was 3.4%; in assay [2] (Treatment Day 3), 3.7%; in assay [2] (Treatment Day 4), 4.5%; in assay [2] (Treatment Day 5), 0.3%; in assay [2] (Treatment Day 7), 0.9%. Besides, in assay [2] (Treatment Day 8), the “GM Levels in the Lower Chamber, % inhibition vs. control” value worked out at 2.8%. Also, the “GM Levels in the Lower Chamber, OD value” in assay [2] (Treatment Day 1) came to 0.091 OD; in assay [2] (Treatment Day 2) it was 1.15 OD; in assay [2] (Treatment Day 3), 1.14 OD; in assay [2] (Treatment Day 4), 1.13 OD; in assay [2] (Treatment Day 7), 1.16 OD; in assay [2] (Treatment Day 8) it was 1.13 OD. The MIC50 against Cryptococcus neoformans was determined as 0.008 µg/mL (≈ 0.0117 µM); against Aspergillus flavus, 1 µg/mL (≈ 1.46 µM).

As for `CC[C@@H]([C@H](C)O)n1ncn(-c2ccc(N3CCN(c4ccc(OC[C@@H]5CO[C@@](Cn6cncn6)(c6ccc(F)cc6F)C5)cc4)CC3)cc2)c1=O` [Posaconazole], the MIC is 0.15 µM (≈ 0.105 µg/mL) in assay [1] (read-out: MIC75), 0.112 µM (≈ 0.0785 µg/mL) in assay [1] (setting [3]), 0.25 µg/mL (≈ 0.357 µM) with Cryptococcus neoformans and 0.13 µg/mL (≈ 0.186 µM) in the assay with Aspergillus flavus. Further, in assay [2], the “DFB50 (days taken to reach a fungal burden of 50% of control)” value worked out at 1.45 days. For the same compound, the “GM Levels in the Lower Chamber, OD value” in assay [2] (Treatment Day 0) turned out to be 0 OD; in assay [2] (Treatment Day 1), 0.064 OD; in assay [2] (Treatment Day 2), 1.01 OD; in assay [2] (Treatment Day 3) it was 1.14 OD; in assay [2] (Treatment Day 4), 1.17 OD; in assay [2] (Treatment Day 5) it was 1.18 OD. Besides, the “GM Levels in the Lower Chamber, OD value” in assay [2] (Treatment Day 6) is listed as 1.19 OD; in assay [2] (Treatment Day 7) it was 1.17 OD; in assay [2] (Treatment Day 8) it was 1.15 OD. The “GM Levels in the Lower Chamber, % inhibition vs. control” value is listed as 91% in assay [2] (Treatment Day 1); 15% in assay [2] (Treatment Day 2); 4.1% in assay [2] (Treatment Day 3); 1.1% in assay [2] (Treatment Day 4); −0.6% in assay [2] (Treatment Day 5); −1.1% in assay [2] (Treatment Day 6). The “GM Levels in the Lower Chamber, % inhibition vs. control” value in assay [2] (Treatment Day 7) is 0.3%; in assay [2] (Treatment Day 8), 0.8%. The MIC50 was determined as 0.016 µg/mL (≈ 0.0228 µM) in the assay on Cryptococcus neoformans and 0.063 µg/mL (≈ 0.0899 µM) against Aspergillus flavus.

With `C[C@@H](c1ncncc1F)[C@](O)(Cn1cncn1)c1ccc(F)cc1F` [Voriconazole], the MIC in assay [1] (read-out: MIC75) is greater than 2.86 µM; in assay [1] (setting [3]), 0.0967 µM (≈ 0.0338 µg/mL).
